Laboratory results reported in ChEMBL document CHEMBL5724914, “Linking interpersonal differences in gut microbiota composition and drug biotransformation activity” (2024).

Assays:
[1] = human gut metagenome, 24 h, 2 µM
[2] = human gut metagenome, 24 h, 2 µM; remark: listed apart in the source
[3] = human gut metagenome, 24 h, 2 µM; remark: listed apart in the source
[4] = human gut metagenome, 24 h, 2 µM; remark: listed apart in the source
[5] = human gut metagenome, 24 h, 2 µM; remark: listed apart in the source
[6] = (§1) The drug is tested on WLS-082 corresponding to human gut metagenome with ENA study accession number: PRJEB37062 and ENA sample accession number: ERS12561751 for biotransformation under anaerobic condition. The drug concentrations were measured over 9 timepoints collected between 0 and 24 hours of incubation by liquid-chromatography-coupled mass spectrometry (LC–MS); conditions: 2 µM
[7] = as §1, with “WLS-006” for “WLS-082”, “ERS12561741” for “ERS12561751”; conditions: 2 µM
[8] = human gut metagenome, 24 h, 2 µM; remark: listed apart in the source
[9] = human gut metagenome, 24 h, 2 µM; remark: listed apart in the source
[10] = human gut metagenome, 24 h, 2 µM; remark: listed apart in the source
[11] = human gut metagenome, 24 h, 2 µM; remark: listed apart in the source
[12] = human gut metagenome, 24 h, 2 µM; remark: listed apart in the source
[13] = as §1, with “Z-027” for “WLS-082”, “to” for “to human gut”, “ERS12561826” for “ERS12561751”; conditions: 2 µM
[14] = as §1, with “Z-013” for “WLS-082”, “rabbit” for “human”, “ERS12561813” for “ERS12561751”; conditions: 2 µM
[15] = as §1, with “Z-001” for “WLS-082”, “mouse” for “human”, “ERS12561801” for “ERS12561751”; conditions: 2 µM
[16] = as §1, with “Z-024” for “WLS-082”, “pig” for “human”, “ERS12561823” for “ERS12561751”; conditions: 2 µM
[17] = as §1, with “Z-009” for “WLS-082”, “pig” for “human”, “ERS12561809” for “ERS12561751”; conditions: 2 µM
[18] = as §1, with “Z-028” for “WLS-082”, “mouse” for “human”, “ERS12561827” for “ERS12561751”; conditions: 2 µM
[19] = as §1, with “Z-007” for “WLS-082”, “rat” for “human”, “ERS12561807” for “ERS12561751”; conditions: 2 µM
[20] = as §1, with “Z-020” for “WLS-082”, “rabbit” for “human”, “ERS12561819” for “ERS12561751”; conditions: 2 µM
Note: call rule not given here.

| SMILES | Bacterial Biotransformation [1] | Bacterial Biotransformation [2] | Bacterial Biotransformation [3] | Bacterial Biotransformation [4] | Bacterial Biotransformation [5] | Bacterial Biotransformation [6] | Bacterial Biotransformation [7] | Bacterial Biotransformation [8] | Bacterial Biotransformation [9] | Bacterial Biotransformation [10] | Bacterial Biotransformation [11] | Bacterial Biotransformation [12] | Bacterial Biotransformation [13] | Bacterial Biotransformation [14] | Bacterial Biotransformation [15] | Bacterial Biotransformation [16] | Bacterial Biotransformation [17] | Bacterial Biotransformation [18] | Bacterial Biotransformation [19] | Bacterial Biotransformation [20] |
| --- | --- | --- | --- | --- | --- | --- | --- | --- | --- | --- | --- | --- | --- | --- | --- | --- | --- | --- | --- | --- |
| OC(CCN1CCCCC1)(c1ccccc1)C1CC2C=CC1C2 (centres undefined) [BIPERIDEN] | Compound NOT metabolized | Compound NOT metabolized | Compound metabolized | Compound metabolized | Compound NOT metabolized | Compound NOT metabolized | Compound metabolized | Compound metabolized | Compound metabolized | Compound NOT metabolized | Compound metabolized | Compound metabolized | – | – | – | – | – | – | – | – |
| CN1CCc2cccc3c2[C@H]1Cc1ccc(O)c(O)c1-3 [APOMORPHINE] | Compound NOT metabolized | Compound NOT metabolized | Compound NOT metabolized | Compound NOT metabolized | Compound NOT metabolized | – | Compound NOT metabolized | Compound NOT metabolized | Compound NOT metabolized | Compound NOT metabolized | Compound NOT metabolized | Compound NOT metabolized | Compound NOT metabolized | Compound metabolized | Compound NOT metabolized | Compound metabolized | Compound metabolized | – | – | – |
| Cc1ccc(/C(=C\CN2CCCC2)c2ccccn2)cc1 [TRIPROLIDINE] | Compound NOT metabolized | Compound NOT metabolized | Compound NOT metabolized | Compound NOT metabolized | Compound NOT metabolized | Compound NOT metabolized | Compound metabolized | Compound metabolized | Compound metabolized | Compound NOT metabolized | Compound NOT metabolized | Compound NOT metabolized | Compound NOT metabolized | Compound NOT metabolized | Compound NOT metabolized | Compound NOT metabolized | Compound NOT metabolized | Compound NOT metabolized | Compound NOT metabolized | – |
| CN1CCN(CC/C=C2/c3ccccc3Sc3ccc(S(=O)(=O)N(C)C)cc32)CC1 [THIOTHIXENE] | Compound NOT metabolized | Compound metabolized | Compound NOT metabolized | Compound metabolized | Compound metabolized | Compound metabolized | Compound metabolized | Compound metabolized | Compound metabolized | Compound metabolized | Compound metabolized | Compound metabolized | – | – | – | – | – | – | – | – |
| COC(=O)C1=C(C)NC(C)=C(C(=O)OC(C)C)C1c1cccc2nonc12 (centres undefined) [ISRADIPINE] | Compound metabolized | Compound metabolized | Compound metabolized | Compound metabolized | Compound NOT metabolized | Compound metabolized | Compound NOT metabolized | Compound metabolized | Compound metabolized | Compound metabolized | Compound metabolized | Compound NOT metabolized | – | – | Compound NOT metabolized | – | – | – | – | – |
| C#C[C@]1(O)CC[C@H]2[C@@H]3CCC4=Cc5oncc5C[C@]4(C)[C@H]3CC[C@@]21C [DANAZOL] | – | Compound metabolized | Compound metabolized | Compound NOT metabolized | – | Compound metabolized | Compound metabolized | Compound metabolized | – | – | – | Compound metabolized | Compound metabolized | – | – | Compound metabolized | – | Compound metabolized | – | Compound NOT metabolized |
| Cc1nc2n(c(=O)c1CCN1CCC(c3noc4cc(F)ccc34)CC1)CCCC2O (centres undefined) [PALIPERIDONE] | Compound metabolized | Compound metabolized | Compound metabolized | Compound metabolized | Compound metabolized | – | Compound metabolized | Compound metabolized | Compound metabolized | Compound metabolized | Compound metabolized | Compound NOT metabolized | Compound NOT metabolized | Compound NOT metabolized | Compound NOT metabolized | Compound metabolized | Compound metabolized | – | – | Compound NOT metabolized |
| Nc1ccc(/N=N/c2ccccc2)c(N)n1 [PHENAZOPYRIDINE] | Compound metabolized | Compound metabolized | Compound metabolized | Compound NOT metabolized | Compound metabolized | Compound metabolized | Compound metabolized | Compound metabolized | Compound metabolized | Compound metabolized | Compound metabolized | Compound metabolized | Compound metabolized | Compound metabolized | Compound metabolized | Compound metabolized | Compound metabolized | Compound metabolized | Compound metabolized | – |
| C[C@@H]1CC[C@H]2[C@@H](C)C(=O)O[C@@H]3O[C@@]4(C)CC[C@@H]1[C@]32OO4 [ARTEMISININ] | Compound metabolized | Compound metabolized | – | Compound metabolized | Compound metabolized | Compound metabolized | Compound metabolized | Compound metabolized | – | Compound metabolized | Compound metabolized | Compound metabolized | Compound metabolized | – | – | Compound metabolized | – | Compound metabolized | – | Compound metabolized |
| CN1C[C@H](C(=O)N[C@]2(C)O[C@@]3(O)[C@@H]4CCCN4C(=O)[C@H](Cc4ccccc4)N3C2=O)C=C2c3cccc4[nH]cc(c34)C[C@H]21.CN1C[C@H](C(=O)N[C@]2(C)O[C@@]3(O)[C@@H]4CCCN4C(=O)[C@H](Cc4ccccc4)N3C2=O)C=C2c3cccc4[nH]cc(c34)C[C@H]21.O=C(O)C(O)C(O)C(=O)O [ERGOTAMINE TARTRATE] | Compound metabolized | Compound metabolized | Compound metabolized | Compound metabolized | Compound metabolized | – | Compound metabolized | Compound metabolized | Compound metabolized | Compound metabolized | Compound metabolized | Compound NOT metabolized | – | – | – | – | – | – | Compound NOT metabolized | – |
| CC(=O)O[C@]1(C(C)=O)CC[C@H]2[C@@H]3C=C(Cl)C4=CC(=O)[C@@H]5C[C@@H]5[C@]4(C)[C@H]3CC[C@@]21C [CYPROTERONE ACETATE] | Compound metabolized | Compound metabolized | Compound metabolized | Compound metabolized | Compound metabolized | Compound NOT metabolized | Compound metabolized | Compound metabolized | Compound metabolized | Compound metabolized | Compound metabolized | Compound NOT metabolized | – | – | Compound metabolized | – | Compound metabolized | – | – | – |
